The results in this text go back to US10233180B2, “Substituted nitrogen-containing heterocyclic derivatives, pharmaceutical compositions comprising the same and applications of antitumor thereof” (ZHEJIANG UNIVERSITY, priority 2014, dated 2019).

The subject of assay [1] is human colon cancer cell strain HCT-116. As to the kind of experiment: MTT assay, inhibition of tumor cell growth in vitro, 72 h. To be noted: Homo sapiens, HCT-116, MTT, read-out: Antitumor proliferative activities of tumor cell (IC50, μM) HCT-116 (converted). Format: cell-based. The method in brief:
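Cells in RPMI 1640 with FBS, 4000 cells/well, exposed 72 h at 37 °C, 5% CO2 to final 50, 10, 2, 0.4 and 0.08 μM; 1% DMSO blank. MTT OD gives % inhibition versus control; IC50 derived by Bliss method.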
(Tetrazolium assays rely on reduction of a dye to a coloured formazan, in cell work by metabolically active cells.)

The target of assay [2] is T1, Akt1 (Homo sapiens, UniProt P31749).
T1 construct: purchased 32-021
T1 sequence (P31749 whole entry): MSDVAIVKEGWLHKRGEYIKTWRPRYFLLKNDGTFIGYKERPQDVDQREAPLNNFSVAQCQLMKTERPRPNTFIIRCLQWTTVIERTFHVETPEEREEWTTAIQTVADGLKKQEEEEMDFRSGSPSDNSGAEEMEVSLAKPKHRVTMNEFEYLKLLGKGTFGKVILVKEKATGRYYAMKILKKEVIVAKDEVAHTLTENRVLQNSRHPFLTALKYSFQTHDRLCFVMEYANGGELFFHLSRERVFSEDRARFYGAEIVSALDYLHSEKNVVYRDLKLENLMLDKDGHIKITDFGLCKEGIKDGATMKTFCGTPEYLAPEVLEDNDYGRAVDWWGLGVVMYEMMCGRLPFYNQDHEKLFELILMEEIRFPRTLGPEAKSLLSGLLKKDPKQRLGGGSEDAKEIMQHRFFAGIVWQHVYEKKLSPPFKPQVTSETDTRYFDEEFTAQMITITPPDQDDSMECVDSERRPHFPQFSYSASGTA
As to the kind of experiment: AKT1/PKBα KinEASE FP Fluorescein Green Assay (fluorescence polarization kinase kit). Conditions: 1 h reaction, read-out: Inhibitory activities against Akt1 (IC50). Format: biochemical. Put shortly:
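FP competition kinase assay: compounds (50 μM stock) with STK Substrate 3 and ATP, 1 h reaction at room temperature; stopped with stop/antibody mix, 4 h at room temperature, then polarization read. Inhibition derived from polarization values; IC50 calculated; triplicate wells.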
A general note: Fluorescence polarisation rises when a labelled molecule tumbles more slowly, as on binding a larger partner.

Assay [3] concerns Human ovarian cancer cell strain OVCAR-8. Description: MTT assay, inhibition of tumor cell growth in vitro, 72 h. It counts as cell-based. Conditions: Homo sapiens, OVCAR-8, MTT, read-out: Antitumor proliferative activities of tumor cell (IC50, μM) OVCAR-8. The method in brief:
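OVCAR8 cells in RPMI 1640 plus FBS were seeded at 4000 cells/well and exposed for 72 h at 37 °C to compound at 50, 10, 2, 0.4 and 0.08 μM final, with 1% DMSO as blank. Inhibition was calculated from OD relative to control, and IC50 was derived by the Bliss method.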

The term IC50 denotes the point on the concentration scale where inhibition reaches its midpoint. As to `CNC(=O)CC1C[C@@H](c2ccc(F)c(F)c2)[C@H](NC(=O)c2cc(-c3c(Cl)cnn3C)cs2)CN1` (stereo partly drawn) [Compound 133, 4-(4-chloro-1-methyl-1H-pyrazol-5-yl)-N-((3S,4S)-4-(3,4-difluorophenyl)-6-(2-(methylamido)-2-oxyethyl)piperidin-3-yl)thiophene-2-formamide], the IC50 is 0.42 µM in assay [1], 3 nM in assay [2] and 5.79 µM in assay [3].

Take `Cc1cc(C(=O)N[C@@H]2CNCC[C@H]2c2ccc(Cl)c(C(F)(F)F)c2)ccc1-c1c(Cl)cnn1C` [Compound 74, 4-(4-chloro-1-methyl-1H-pyrazol-5-yl)-N-((3S,4S)-4-(4-chloro-3-(trifluoromethyl)phenyl)piperidin-3-yl)-3-methylbenzamide]: the IC50 was 0.42 µM in assay [1], 14 nM in assay [2] and 1.3 µM in assay [3].

`Cn1ncc(Cl)c1-c1cc(C(=O)N[C@H]2CNCC[C@@H]2c2ccc(C(F)(F)F)cc2)oc1Cl` (racemic) [Compound 30, 5-chloro-4-(4-chloro-1-methyl-1H-pyrazol-5-yl)-N-(3,4-trans-4-(4-trifluoromethylphenyl)piperidin-3-yl)furan-2-formamide]: the figures for the IC50 in assay [1], in assay [2] and in assay [3] were 21.6 µM, 92 nM and 1.01 µM, respectively.

Regarding `Cn1ncc(Cl)c1-c1ccc(C(=O)N[C@@H]2CNCC[C@H]2c2cccc3[nH]ccc23)cc1Cl` [Compound 91, N-((3S,4S)-4-(1H-indol-4-yl)piperidin-3-yl)-3-chloro-4-(4-chloro-1-methyl-1H-pyrazol-5-yl)benzamide], the IC50 in assay [1] is 0.34 µM; in assay [2], 5 nM; in assay [3] it was 2.91 µM.

Consider `Cn1ncc(Br)c1-c1coc(C(=O)N[C@H]2CNCC[C@@H]2c2ccc(C(F)(F)F)cc2)c1` (racemic) [Compound 27, 4-(4-bromo-1-methyl-1H-pyrazol-5-yl)-N-(3,4-trans-4-(4-trifluoromethylphenyl)piperidin-3-yl)furan-2-formamide], for which the IC50 is 5.89 µM in assay [1], 17 nM in assay [2] and 1.82 µM in assay [3].

For `Cn1ncc(Cl)c1-c1ccc(C(=O)N[C@@H]2CNCC[C@H]2c2ccc(F)c(F)c2)cc1Cl` [Compound 78, 3-chloro-4-(4-chloro-1-methyl-1H-pyrazol-5-yl)-N-((3S,4S)-4-(3,4-difluorophenyl)piperidin-3-yl)benzamide], the half-inhibitory concentration (IC50) in assay [1] is 2.03 µM; in assay [2] it was 6 nM; in assay [3], 0.76 µM.

Take `CCC[C@H]1CNC[C@@H](NC(=O)c2cc(-c3c(Cl)cnn3C)c(Cl)o2)[C@@H]1c1cccc(F)c1` [Compound 137, 5-chloro-4-(4-chloro-1-methyl-1H-pyrazol-5-yl)-N-((3S, 4S, 5R)-4-(3-fluorophenyl)-5-propylpiperidin-3-yl)furan-2-formamide]: the IC50 in assay [1] was 0.43 µM; in assay [2], 1 nM; in assay [3], 1.88 µM.

For the molecule `CCc1cnn(C)c1-c1cc(C(=O)N[C@H]2CNCC[C@@H]2c2ccc(Cl)cc2)nc(C)n1` (racemic) [Compound 47, 2-methyl-6-(1-methyl-4-ethyl-1H-pyrazol-5-yl)-N-(3,4-trans-4-(4-chlorophenyl)piperidin-3-yl)pyrimidine-4-formamide], the IC50 in assay [1] was 3.11 µM; in assay [2], 216 nM; in assay [3], 5.57 µM.

On to `Cn1ncc(Cl)c1-c1cnc(C(=O)N[C@@H]2CNCC[C@H]2c2ccc(F)c(F)c2)nc1` [Compound 93, 5-(4-chloro-1-methyl-1H-pyrazol-5-yl)-N-((3S,4S)-4-(3,4-difluorophenyl)piperidin-3-yl)pyrimidine-2-formamide], for which the IC50 in assay [1] was 5.82 µM; in assay [2], 8 nM; in assay [3], 7.89 µM.

For the molecule `Cn1nccc1-c1csc(C(=O)N[C@H]2CNCC[C@@H]2c2ccc(Cl)cc2)c1` (racemic) [Compound 32, 4-(1-methyl-1H-pyrazol-5-yl)-N-(3,4-trans-4-(4-chlorphenyl)piperidin-3-yl) thiophene-2-formamide], the IC50 is 18.1 µM in assay [1], 123 nM in assay [2] and 1.47 µM in assay [3].

`Cn1ncc(Cl)c1-c1cnc(C(=O)N[C@@H]2CNCC[C@H]2c2cccc(F)c2)cc1Cl` [Compound 92, 4-chloro-5-(4-chloro-1-methyl-1H-pyrazol-5-yl)-N-((3S,4S)-4-(3-fluorophenyl)piperidin-3-yl)picolinamide]: the half-inhibitory concentration (IC50) was 1.25 µM in assay [1], 16 nM in assay [2] and 1.07 µM in assay [3].

For `Cn1ncc(Br)c1-c1ccc(C(=O)N[C@@H]2CNCC[C@H]2c2cc(F)c(F)c(F)c2)cc1` [Compound 81, 4-(4-bromo-1-methyl-1H-pyrazol-5-yl)-N-((3S,4S)-4-(3,4,5-trifluorophenyl)piperidin-3-yl)benzamide], the 50% inhibitory concentration (IC50) in assay [1] was 1.1 µM; in assay [2], 18 nM; in assay [3], 3.57 µM.

Regarding `Cn1nccc1-c1coc(C(=O)N[C@H]2CNCC[C@@H]2c2ccc(F)c(F)c2)c1` (racemic) [Compound 21, 4-(1-methyl-1H-pyrazol-5-yl)-N-(3,4-trans-4-(3,4-difluorophenyl)piperidin-3-yl)furan-2-formamide], the IC50 in assay [1] was 21 µM; in assay [2], 119 nM; in assay [3] it was 10.7 µM.

Take `Cn1ncc(Cl)c1-c1cc(C(=O)N[C@@H]2CNC(CCOC(=O)C(F)(F)F)C[C@H]2c2ccc(F)c(F)c2)oc1Cl` (stereo partly drawn) [Compound 132, 2-((4S,5S)-5-(5-chloro-4-(4-chloro-1-methyl-1H-pyrazol-5-yl)furan-2-formamido)-4-(3,4-difluorophenyl)piperidin-2-yl)ethyl 2,2,2-trifluoroacetate]: the IC50 in assay [1] was 1.21 µM; in assay [2] it was 2 nM; in assay [3] it was 1.33 µM.

Turning to `CCc1cnn(C)c1-c1cccc(C(=O)N[C@H]2CNCC[C@@H]2c2ccc(Cl)cc2)c1Cl` (racemic) [Compound 53, 2-chloro-3-(4-ethyl-1-methyl-1H-pyrazol-5-yl)-N-(3,4-trans-4-(4-chlorophenyl)piperidin-3-yl)phenyl formamide], the results for the IC50 in assay [1], in assay [2] and in assay [3] were 2.66 µM, 29 nM and 4.69 µM, respectively.

For `Cn1ncc(Br)c1-c1ccc(C(=O)N[C@@H]2CNCC[C@H]2c2ccc(Cl)cc2)cc1` [Compound 72, 4-(4-bromo-1-methyl-1H-pyrazol-5-yl)-N-((3S,4S)-4-(4-chlorophenyl)piperidin-3-yl)benzamide], the values for the IC50 in assay [1], in assay [2] and in assay [3] were 0.92 µM, 6 nM and 1.34 µM, respectively.

For the molecule `Cn1ncc(Cl)c1-c1cc(C(=O)N[C@@H]2CNC(CC(=O)NC3CC3)C[C@H]2c2ccc(Cl)c(Cl)c2)oc1Cl` (stereo partly drawn) [Compound 119, 5-chloro-4-(4-chloro-1-methyl-1H-pyrazol-5-yl)-N-((3S,4S)-6-(2-(cyclopropylamido)-2-oxoethyl)-4-(3,4-dichlorophenyl)piperidin-3-yl)furan-2-formamide], the IC50 in assay [1] was 1.47 µM; in assay [2], 4 nM; in assay [3], 0.65 µM.

Take `CNC(=O)CC1C[C@@H](c2ccc(F)c(F)c2)[C@H](NC(=O)c2cc(-c3c(Cl)cnn3C)c(Cl)o2)CN1` (stereo partly drawn) [Compound 105, 5-chloro-4-(4-chloro-1-methyl-1H-pyrazol-5-yl)-N-((3S,4S)-4-(3,4-difluorophenyl)-6-(2-(methylamido)-2-oxoethyl)piperidin-3-yl)furan-2-formamide]: the IC50 in assay [1] was 0.56 µM; in assay [2] it was 51 nM; in assay [3], 1.94 µM.
